Measurements as given in PubChem BioAssay (NCI).
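Method: 48-hour compound exposure of cells in 96-well plates, five concentrations, linear interpolation of endpoints. Here, GI50 denotes the concentration required for 50% inhibition of growth. TGI: concentration producing complete growth inhibition.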

Assays:
Assay in all cases: NCI tumour cell line growth inhibition, 48 h
HOP-92 NSCLC = test system: HOP-92 NSCLC
K-562 leukemia = test system: K-562 leukemia
IGROV1 ovarian = test system: IGROV1 ovarian
TK-10 renal = test system: TK-10 renal
PC-3 prostate = test system: PC-3 prostate
A549 NSCLC = test system: A549 NSCLC
HCT-15 colon = test system: HCT-15 colon
SNB-75 CNS = test system: SNB-75 CNS
HS 578T breast = test system: HS 578T breast
HL-60(TB) leukemia = test system: HL-60(TB) leukemia

SMILES | GI50 (HOP-92 NSCLC) | TGI (HOP-92 NSCLC) | GI50 (K-562 leukemia) | TGI (K-562 leukemia) | GI50 (IGROV1 ovarian) | TGI (IGROV1 ovarian) | GI50 (TK-10 renal) | TGI (TK-10 renal) | GI50 (PC-3 prostate) | TGI (PC-3 prostate) | GI50 (A549 NSCLC) | TGI (A549 NSCLC) | GI50 (HCT-15 colon) | TGI (HCT-15 colon) | GI50 (SNB-75 CNS) | TGI (SNB-75 CNS) | GI50 (HS 578T breast) | TGI (HS 578T breast) | GI50 (HL-60(TB) leukemia) | TGI (HL-60(TB) leukemia)
N#C/C(=C\c1ccc[nH]1)c1cc(-c2ccc(Cl)cc2)nn1-c1ccccc1 | 2.54 µM | 10.2 µM | 3.24 µM | 10.9 µM | 14 µM | > 95.4 µM | 3.12 µM | 21.1 µM | 3.12 µM | 23.1 µM | 6.92 µM | > 64.7 µM | 5.37 µM | 25.1 µM | 2.29 µM | 16 µM | 2.17 µM | 14.1 µM | 4.36 µM | 29.3 µM
COC(=O)Nc1nc2ccc(C(=O)c3cccc(I)c3)cc2[nH]1 | 0.0985 µM | 11.7 µM | 0.0364 µM | 14.2 µM | 0.11 µM | 8.82 µM | 6.37 µM | 32.7 µM | 0.0457 µM | 6.18 µM | 0.0699 µM | 15 µM | 0.0459 µM | 13.2 µM | 0.0514 µM | 15.4 µM | 0.0904 µM | 25.7 µM | 0.0315 µM | 0.163 µM
COC(=O)CC[C@@H](C)[C@H]1CC[C@H]2[C@@H]3CC[C@@H]4C[C@H](O)CC[C@]4(C)[C@H]3CC[C@]12C | – | 27.8 µM | – | 65.7 µM | – | 35.4 µM | – | 37.4 µM | – | 32.2 µM | – | 36.6 µM | – | 33.7 µM | – | 36.1 µM | – | 55.8 µM | – | 35.5 µM
O=C(NC1CCC[C@H]1OC(=O)c1ccccc1)c1ccccc1 (stereo partly specified) | – | > 100 µM | – | > 100 µM | – | > 100 µM | – | > 100 µM | – | – | – | > 100 µM | – | – | – | 98.9 µM | – | – | – | > 100 µM
Cc1ccc(NC(=O)COc2ccc(Cl)cc2)cc1Cl | – | > 100 µM | – | > 100 µM | – | > 100 µM | – | > 100 µM | – | > 100 µM | – | > 100 µM | – | > 100 µM | – | > 100 µM | – | > 100 µM | – | –
[N-]=[N+]=C(C(=O)CN1CCCC1=O)S(=O)(=O)c1ccccc1 | – | – | – | > 100 µM | – | > 100 µM | – | > 100 µM | – | > 100 µM | – | > 100 µM | – | > 100 µM | – | > 100 µM | – | > 100 µM | – | > 100 µM
CC(C)N1CC2CC(CN(C(=O)c3ccc(Cl)cc3)C2)C1 | – | > 100 µM | – | > 100 µM | – | > 100 µM | – | > 100 µM | – | – | – | > 100 µM | – | > 100 µM | – | > 100 µM | – | – | – | > 100 µM
COc1ccc(C(C2=C(O)CC(C)OC2=O)C2=C(O)CC(C)OC2=O)cc1 (stereo unspecified) | – | – | – | > 100 µM | – | > 100 µM | – | – | – | – | – | > 100 µM | – | > 100 µM | – | > 100 µM | – | – | – | –
Cc1[nH]nc(C(F)(F)F)c1Cc1sc2c(c1C(=O)N1C[C@](C)(O)CO1)c(=O)n(C)c(=O)n2C(C)C | > 100 µM | > 100 µM | – | > 100 µM | – | – | > 100 µM | > 100 µM | > 100 µM | > 100 µM | > 100 µM | > 100 µM | > 100 µM | > 100 µM | > 100 µM | > 100 µM | > 100 µM | > 100 µM | > 100 µM | > 100 µM
CCC(O)CCCCCCCCCCCCCCC(=O)O (stereo unspecified) | – | > 100 µM | – | > 100 µM | – | > 100 µM | – | > 100 µM | – | – | – | > 100 µM | – | – | – | > 100 µM | – | – | – | 80 µM
COc1ccc(C(=O)/C=C/c2ccc(OCc3cccc(C(F)(F)F)c3)c(OC)c2)cc1OC | 142 µM | > 1000 µM | – | – | 60.2 µM | > 1000 µM | 397 µM | > 1000 µM | 61.4 µM | > 1000 µM | 67.7 µM | > 1000 µM | 42 µM | > 1000 µM | 31.6 µM | > 1000 µM | 92.4 µM | > 1000 µM | 24.8 µM | 70.9 µM
C=CCC1(CN(C)C)CC/C(=C\c2ccc3c(c2)OCO3)C1=O (stereo unspecified) | – | > 100 µM | – | > 100 µM | – | > 100 µM | – | > 100 µM | – | – | – | > 100 µM | – | > 100 µM | – | > 100 µM | – | – | – | 15.8 µM
CN(C(=O)C(C)(C)C)c1ccccc1I(=O)=O | 15.9 µM | 96.7 µM | 14.1 µM | 35.5 µM | > 100 µM | > 100 µM | > 100 µM | > 100 µM | – | – | > 100 µM | > 100 µM | 84.3 µM | > 100 µM | > 100 µM | > 100 µM | > 100 µM | > 100 µM | 3.81 µM | > 100 µM
CCOC(=O)N1CCC(N=C2CSc3nnc(-c4cc(C(F)(F)F)cc(C(F)(F)F)c4)n3N2)CC1 | 1.97 µM | 5 µM | 2.88 µM | 6.92 µM | 1.9 µM | 4.79 µM | – | – | 2.2 µM | 6.27 µM | – | – | 2.29 µM | 5.4 µM | 1.92 µM | 5.54 µM | 2.31 µM | 6.4 µM | – | –
CN1C(=O)N(C)C2C1NC(=S)N2/N=C/C=C/c1ccccc1[N+](=O)[O-] (stereo unspecified) | 57.7 µM | > 100 µM | – | – | 2.48 µM | > 100 µM | – | – | 0.967 µM | > 100 µM | 2.15 µM | > 100 µM | 0.889 µM | > 100 µM | 0.319 µM | > 100 µM | 0.646 µM | > 100 µM | 0.414 µM | 2.8 µM
O=C(CC12C3C4C1C1C2C3C41CC(=O)NO)NO (stereo unspecified) | – | 97 µM | – | 87.1 µM | – | – | – | > 100 µM | – | – | – | > 100 µM | – | > 100 µM | – | 81 µM | – | – | – | 86.2 µM
CC1(c2ccc(F)cc2)C2C(=O)NC(=O)C1C(=O)NC2=O (stereo unspecified) | – | > 100 µM | – | > 100 µM | – | > 100 µM | – | > 100 µM | – | – | – | > 100 µM | – | > 100 µM | – | > 100 µM | – | – | – | > 100 µM
CSc1ccc(N2C(=O)C3c4[nH]c5ccccc5c4C4CCC(C(C)(C)C)CC4C3C2=O)cc1 (stereo unspecified) | – | 27.1 µM | – | 34.5 µM | – | 32 µM | – | 40.5 µM | – | – | – | 33.5 µM | – | > 100 µM | – | 39.2 µM | – | – | – | 31.1 µM
CCO/C=C\C12CCCC1NC(c1ccccc1)(c1ccccc1)O2 (stereo unspecified) | – | 52.3 µM | – | 56.7 µM | – | 71.1 µM | – | > 100 µM | – | – | – | > 100 µM | – | – | – | 78.5 µM | – | – | – | 45.2 µM
